Test system: MCF-7 cells
Assay: MCF-7 cell growth, cell number after 7 days
Format: cell-based, human
Details: 100 nM RA, LGD1550, LGD1268, 10 μM LG100815, LG101208
Protocol: The bars represent cell number after 7 days of culture with the addition of DMSO (control), 100 nM RA, 100 nM RAR agonist LGD1550, 100 nM RXR agonist LGD1268, 10 μM RAR antagonist LG100815, and 10 μM RXR antagonist LG101208. Experiments were done in triplicate, and the results are expressed relative to the average of the control.
To test this, we have analyzed the effects of different compounds on the growth of MCF-7 cells, as measured by the cell number after 7 days exposure to the compounds (FIG. 2) and on the fraction of cells expressing the senescence-associated β-galactosidase activity (SA-β-gal), a marker of senescence, after 7-day treatment with the compounds (FIG. 3).

For `CC(/C=C/C=C(\C)c1cc(C(C)(C)C)cc(C(C)(C)C)c1)=C\C(=O)O` [LGD1550], the “effect on MCF-7 cell growth (cell number)” value was “inhibited the cell growth”.

Reference: patent US20060217305A1, “Induction of tumor cell senescence by retinoid receptor agonists and antagonists” (Ordway Research Institute, Inc., priority 2005, published 2006)
